Measured values: ChEMBL document CHEMBL5257028, “Recent advances in the discovery of heparanase inhibitors as anti-cancer agents” (Eur J Med Chem, 2016)

What was measured:
[1] = Anti-angiogenic activity in human endothelial cells assessed as reduction in cell growth incubated for 11 days by PECAM-1 staining based image analysis; details: 264 h
[2] = target: T1, Heparanase (Homo sapiens) (UniProt Q9Y251); test: Inhibition of recombinant human heparanase at 5 ug/ml incubated for 4 hrs by beta-scintillation counter analysis relative to control; details: dose 5.0 µg/ml
T1 sequence (whole entry): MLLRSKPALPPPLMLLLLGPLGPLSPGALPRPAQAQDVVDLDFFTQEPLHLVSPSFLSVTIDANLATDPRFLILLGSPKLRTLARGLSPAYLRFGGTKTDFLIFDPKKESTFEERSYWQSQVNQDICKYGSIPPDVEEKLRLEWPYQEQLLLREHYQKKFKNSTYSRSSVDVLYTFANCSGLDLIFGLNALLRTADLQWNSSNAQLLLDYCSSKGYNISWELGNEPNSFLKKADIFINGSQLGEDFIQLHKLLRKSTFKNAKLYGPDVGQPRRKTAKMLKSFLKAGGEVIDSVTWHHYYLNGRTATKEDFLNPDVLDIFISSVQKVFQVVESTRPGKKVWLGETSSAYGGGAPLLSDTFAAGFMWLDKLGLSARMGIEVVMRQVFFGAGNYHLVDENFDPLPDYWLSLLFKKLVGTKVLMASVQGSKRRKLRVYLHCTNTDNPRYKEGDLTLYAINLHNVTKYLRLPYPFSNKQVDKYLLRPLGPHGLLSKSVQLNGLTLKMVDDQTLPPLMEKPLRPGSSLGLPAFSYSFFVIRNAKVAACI

[3] = Half life in mouse; assay type: ADME, organism-based; details: in vivo
HeLa = test: Cytotoxicity against human HeLa cells assessed as growth inhibition; assay type: functional, cell-based
B16-F10 = test: Antimigratory activity against mouse B16-F10 cells assessed as inhibition on cell migration
P-selectin = target: T2, P-selectin (Mus musculus, UniProt Q01102); test: Inhibition of mouse P-selectin assessed as inhibition of adhesion to human LS180 cells to immobilized P-selectin incubated for 1 hrs by ELISA; assay type: cell-based
T2 sequence (Q01102 whole entry): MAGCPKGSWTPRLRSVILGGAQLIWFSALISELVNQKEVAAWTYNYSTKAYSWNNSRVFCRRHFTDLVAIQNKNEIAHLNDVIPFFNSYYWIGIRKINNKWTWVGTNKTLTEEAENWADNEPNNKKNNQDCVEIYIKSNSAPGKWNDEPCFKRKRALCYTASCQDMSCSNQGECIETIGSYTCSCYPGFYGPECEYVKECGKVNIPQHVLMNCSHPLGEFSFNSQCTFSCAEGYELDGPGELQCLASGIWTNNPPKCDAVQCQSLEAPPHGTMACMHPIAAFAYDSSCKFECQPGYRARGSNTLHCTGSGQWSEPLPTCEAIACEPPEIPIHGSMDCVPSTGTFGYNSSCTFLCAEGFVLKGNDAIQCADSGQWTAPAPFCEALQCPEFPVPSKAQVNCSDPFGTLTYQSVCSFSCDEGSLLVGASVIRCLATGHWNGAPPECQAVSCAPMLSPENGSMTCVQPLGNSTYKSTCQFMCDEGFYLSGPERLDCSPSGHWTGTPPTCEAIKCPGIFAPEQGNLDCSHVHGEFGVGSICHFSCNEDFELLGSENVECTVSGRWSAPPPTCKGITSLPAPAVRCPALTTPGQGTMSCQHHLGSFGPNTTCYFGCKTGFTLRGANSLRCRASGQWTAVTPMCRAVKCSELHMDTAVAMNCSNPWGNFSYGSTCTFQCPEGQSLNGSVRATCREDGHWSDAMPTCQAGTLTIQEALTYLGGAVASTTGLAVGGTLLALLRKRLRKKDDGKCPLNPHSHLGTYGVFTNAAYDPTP

Work on COc1ccc(N2C(=O)c3ccc(C(=O)O)cc3C2=O)cc1-c1nc2cc(-c3ccc4c(c3)OCO4)ccc2o1 yielded an IC50 [1] of 3 µM.

With O=C(O)c1ccc2c(c1)C(=O)N(c1cccc(-c3nc4ccccc4o3)c1)C2=O the IC50 [1] was 40 µM.

Work on O=S(=O)(O)OC[C@@H]1O[C@@H](O[C@@H]2[C@@H](OS(=O)(=O)O)[C@H](OS(=O)(=O)O)C(C3O[C@H](COS(=O)(=O)O)[C@@H](O[C@H]4O[C@H](COS(=O)(=O)O)[C@@H](O[C@H]5O[C@H](COS(=O)(=O)O)[C@@H](OS(=O)(=O)O)[C@H](OS(=O)(=O)O)[C@H]5OS(=O)(=O)O)[C@H](OS(=O)(=O)O)[C@H]4OS(=O)(=O)O)[C@H](OS(=O)(=O)O)[C@H]3OS(=O)(=O)O)O[C@H]2COS(=O)(=O)O)[C@@H](OS(=O)(=O)O)[C@H](OS(=O)(=O)O)[C@H]1O[C@@H]1O[C@@H](COS(=O)(=O)O)[C@H](OS(=O)(=O)O)[C@@H](OS(=O)(=O)O)[C@@H]1OS(=O)(=O)O (stereo in doubt; form 2) yielded an inhibition [2] of 58%.

In the case of O=C(O)Cc1nc(-c2ccc(-c3ccc(NC(=O)/C=C/c4ccc(Br)cc4)cc3Cl)o2)cs1, the IC50 [1] is reported as 1 µM and the half-life [3] is reported as 30 min.

COc1ccc(C2CNC(c3ccccc3F)OC23CCCCC3)cc1 (configuration not stated) gave an IC50 (HeLa) of 48.2 µM.

For CCCCCCCCCCCCCCCc1c(O[C@H]2O[C@H](C(=O)O)[C@@H](O)[C@H](O)[C@H]2O)ccc(O)c1C(=O)Oc1cc(C)c(C(=O)O)c(O)c1, the IC50 (B16-F10) was 15 µM.

For CCCNc1ccc(N2C(=O)c3ccc(C(=O)O)cc3C2=O)cc1-c1nc2cc(-c3ccc(Br)cc3)ccc2o1, the IC50 [1] was 0.25 µM.

O=S(=O)(O)OC[C@@H]1O[C@@H](O[C@@H]2[C@@H](OS(=O)(=O)O)[C@H](OS(=O)(=O)O)C(C3O[C@H](COS(=O)(=O)O)[C@@H](O[C@H]4O[C@H](COS(=O)(=O)O)[C@@H](O[C@H]5O[C@H](COS(=O)(=O)O)[C@@H](OS(=O)(=O)O)[C@H](OS(=O)(=O)O)[C@H]5OS(=O)(=O)O)[C@H](OS(=O)(=O)O)[C@H]4OS(=O)(=O)O)[C@H](OS(=O)(=O)O)[C@H]3OS(=O)(=O)O)O[C@H]2COS(=O)(=O)O)[C@@H](OS(=O)(=O)O)[C@H](OS(=O)(=O)O)[C@H]1O[C@@H]1O[C@@H](COS(=O)(=O)O)[C@H](OS(=O)(=O)O)[C@@H](OS(=O)(=O)O)[C@@H]1OS(=O)(=O)O (stereo in doubt; form 1) [listing 1 of 2 here] showed an IC50 (P-selectin) of 58.2 µM.

In the case of O=C(O)Cc1ccc2oc(-c3ccc(/C=C/C(=O)Nc4ccc(Cl)cc4Cl)cc3F)nc2c1, the IC50 [1] is reported as 2 µM.

O=S(=O)(O)OC[C@@H]1O[C@@H](O[C@@H]2[C@@H](OS(=O)(=O)O)[C@H](OS(=O)(=O)O)C(C3O[C@H](COS(=O)(=O)O)[C@@H](O[C@H]4O[C@H](COS(=O)(=O)O)[C@@H](O[C@H]5O[C@H](COS(=O)(=O)O)[C@@H](OS(=O)(=O)O)[C@H](OS(=O)(=O)O)[C@H]5OS(=O)(=O)O)[C@H](OS(=O)(=O)O)[C@H]4OS(=O)(=O)O)[C@H](OS(=O)(=O)O)[C@H]3OS(=O)(=O)O)O[C@H]2COS(=O)(=O)O)[C@@H](OS(=O)(=O)O)[C@H](OS(=O)(=O)O)[C@H]1O[C@@H]1O[C@@H](COS(=O)(=O)O)[C@H](OS(=O)(=O)O)[C@@H](OS(=O)(=O)O)[C@@H]1OS(=O)(=O)O (stereo in doubt; form 1) [listing 2 of 2 here] showed an inhibition [2] of 85%.

With CCCCCCCCCCCCCCCc1c(O[C@H]2O[C@H](C(=O)OC)[C@@H](O)[C@H](O)[C@H]2O)ccc(O)c1C(=O)Oc1cc(C)c(C(=O)O)c(O)c1 the IC50 (B16-F10) was 30 µM.
